Laboratory results as given in ChEMBL document CHEMBL1177694, “Multivalent catanionic GalCer analogs derived from first generation dendrimeric phosphonic acids” (Bioorg Med Chem, 2010).

What was measured:
[1] = Cytotoxicity against human CEM-SS cells after 5 days by MTT assay; format: cell-based
[2] = system: Human immunodeficiency virus 1; experiment: Antiviral activity against HIV1 LAI infected in human CEM-SS cells assessed as inhibition of viral replication after 5 days by MTT assay; format: functional, organism-based; conditions: Human immunodeficiency virus 1, LAI, 120 h
[3] = Therapeutic index, ratio of CC50 for human CEM-SS cells to IC50 for HIV1 LAI infected in human CEM-SS cells; format: cell-based; conditions: CEM-SS cells (uninfected and infected with HIV1 LAI), read-out: Ratio CC50/IC50

| Compound | CC50 at 120 h [1] | IC50 [2] | selectivity ratio [3] |
| --- | --- | --- | --- |
| CCCCCCCCCCC(C(=O)NCCc1ccc(OP(=S)(Oc2ccc(CCNC(=O)C(CCCCCCCCCC)P(=O)(O)O)cc2)N(C)/N=C/c2ccc(OP3(Oc4ccc(/C=N/N(C)P(=S)(Oc5ccc(CCNC(=O)C(CCCCCCCCCC)P(=O)(O)O)cc5)Oc5ccc(CCNC(=O)C(CCCCCCCCCC)P(=O)(O)O)cc5)cc4)=NP(Oc4ccc(/C=N/N(C)P(=S)(Oc5ccc(CCNC(=O)C(CCCCCCCCCC)P(=O)(O)O)cc5)Oc5ccc(CCNC(=O)C(CCCCCCCCCC)P(=O)(O)O)cc5)cc4)(Oc4ccc(/C=N/N(C)P(=S)(Oc5ccc(CCNC(=O)C(CCCCCCCCCC)P(=O)(O)O)cc5)Oc5ccc(CCNC(=O)C(CCCCCCCCCC)P(=O)(O)O)cc5)cc4)=NP(Oc4ccc(/C=N/N(C)P(=S)(Oc5ccc(CCNC(=O)C(CCCCCCCCCC)P(=O)(O)O)cc5)Oc5ccc(CCNC(=O)C(CCCCCCCCCC)P(=O)(O)O)cc5)cc4)(Oc4ccc(/C=N/N(C)P(=S)(Oc5ccc(CCNC(=O)C(CCCCCCCCCC)P(=O)(O)O)cc5)Oc5ccc(CCNC(=O)C(CCCCCCCCCC)P(=O)(O)O)cc5)cc4)=N3)cc2)cc1)P(=O)(O)O (configuration not stated) | > 100 µM | 16 µM | > 6 |
| CN(/N=C/c1ccc(OP2(Oc3ccc(/C=N/N(C)P(=S)(Oc4ccc(/C=C/P(=O)(O)O)cc4)Oc4ccc(/C=C/P(=O)(O)O)cc4)cc3)=NP(Oc3ccc(/C=N/N(C)P(=S)(Oc4ccc(/C=C/P(=O)(O)O)cc4)Oc4ccc(/C=C/P(=O)(O)O)cc4)cc3)(Oc3ccc(/C=N/N(C)P(=S)(Oc4ccc(/C=C/P(=O)(O)O)cc4)Oc4ccc(/C=C/P(=O)(O)O)cc4)cc3)=NP(Oc3ccc(/C=N/N(C)P(=S)(Oc4ccc(/C=C/P(=O)(O)O)cc4)Oc4ccc(/C=C/P(=O)(O)O)cc4)cc3)(Oc3ccc(/C=N/N(C)P(=S)(Oc4ccc(/C=C/P(=O)(O)O)cc4)Oc4ccc(/C=C/P(=O)(O)O)cc4)cc3)=N2)cc1)P(=S)(Oc1ccc(/C=C/P(=O)(O)O)cc1)Oc1ccc(/C=C/P(=O)(O)O)cc1 | > 100 µM | 0.65 µM | > 153 |
| CN(/N=C/c1ccc(OP2(Oc3ccc(/C=N/N(C)P(=S)(Oc4ccc(C(O)P(=O)(O)O)cc4)Oc4ccc(C(O)P(=O)(O)O)cc4)cc3)=NP(Oc3ccc(/C=N/N(C)P(=S)(Oc4ccc(C(O)P(=O)(O)O)cc4)Oc4ccc(C(O)P(=O)(O)O)cc4)cc3)(Oc3ccc(/C=N/N(C)P(=S)(Oc4ccc(C(O)P(=O)(O)O)cc4)Oc4ccc(C(O)P(=O)(O)O)cc4)cc3)=NP(Oc3ccc(/C=N/N(C)P(=S)(Oc4ccc(C(O)P(=O)(O)O)cc4)Oc4ccc(C(O)P(=O)(O)O)cc4)cc3)(Oc3ccc(/C=N/N(C)P(=S)(Oc4ccc(C(O)P(=O)(O)O)cc4)Oc4ccc(C(O)P(=O)(O)O)cc4)cc3)=N2)cc1)P(=S)(Oc1ccc(C(O)P(=O)(O)O)cc1)Oc1ccc(C(O)P(=O)(O)O)cc1 (configuration not stated) | > 100 µM | 50 µM | > 2 |
| CN(/N=C/c1ccc(OP2(Oc3ccc(/C=N/N(c4ccc(CCN(CP(=O)(O)O)CP(=O)(O)O)cc4)P(O)(=S)Oc4ccc(CCN(CP(=O)(O)O)CP(=O)(O)O)cc4)cc3)=NP(Oc3ccc(/C=N/N(C)P(=S)(Oc4ccc(CCN(CP(=O)(O)O)CP(=O)(O)O)cc4)Oc4ccc(CCN(CP(=O)(O)O)CP(=O)(O)O)cc4)cc3)(Oc3ccc(/C=N/N(C)P(=S)(Oc4ccc(CCN(CP(=O)(O)O)CP(=O)(O)O)cc4)Oc4cccc(CCN(CP(=O)(O)O)CP(=O)(O)O)c4)cc3)=NP(Oc3ccc(/C=N/N(C)P(=S)(Oc4ccc(CCN(CP(=O)(O)O)CP(=O)(O)O)cc4)Oc4ccc(CCN(CP(=O)(O)O)CP(=O)(O)O)cc4)cc3)(Oc3ccc(/C=N/N(C)P(=S)(Oc4ccc(CCN(CP(=O)(O)O)CP(=O)(O)O)cc4)Oc4ccc(CCN(CP(=O)(O)O)CP(=O)(O)O)cc4)cc3)=N2)cc1)P(=S)(Oc1ccc(CCN(CP(=O)(O)O)CP(=O)(O)O)cc1)Oc1ccc(CCN(CP(=O)(O)O)CP(=O)(O)O)cc1 (configuration not stated) | > 100 µM | 20 µM | > 5 |
| CN(/N=C/c1ccc(OP2(Oc3ccc(/C=N/N(C)P(=S)(Oc4ccc(CCNC(=O)CP(=O)(O)O)cc4)Oc4ccc(CCNC(=O)CP(=O)(O)O)cc4)cc3)=NP(Oc3ccc(/C=N/N(C)P(=S)(Oc4ccc(CCNC(=O)CP(=O)(O)O)cc4)Oc4ccc(CCNC(=O)CP(=O)(O)O)cc4)cc3)(Oc3ccc(/C=N/N(C)P(=S)(Oc4ccc(CCNC(=O)CP(=O)(O)O)cc4)Oc4ccc(CCNC(=O)CP(=O)(O)O)cc4)cc3)=NP(Oc3ccc(/C=N/N(C)P(=S)(Oc4ccc(CCNC(=O)CP(=O)(O)O)cc4)Oc4ccc(CCNC(=O)CP(=O)(O)O)cc4)cc3)(Oc3ccc(/C=N/N(C)P(=S)(Oc4ccc(CCNC(=O)CP(=O)(O)O)cc4)Oc4ccc(CCNC(=O)CP(=O)(O)O)cc4)cc3)=N2)cc1)P(=S)(Oc1ccc(CCNC(=O)CP(=O)(O)O)cc1)Oc1ccc(CCNC(=O)CP(=O)(O)O)cc1 | > 100 µM | 25 µM | > 4 |
| CCCC(C(=O)NCCc1ccc(OP(=S)(Oc2ccc(CCNC(=O)C(CCC)P(=O)(O)O)cc2)N(C)/N=C/c2ccc(OP3(Oc4ccc(/C=N/N(C)P(=S)(Oc5ccc(CCNC(=O)C(CCC)P(=O)(O)O)cc5)Oc5ccc(CCNC(=O)C(CCC)P(=O)(O)O)cc5)cc4)=NP(Oc4ccc(/C=N/N(C)P(=S)(Oc5ccc(CCNC(=O)C(CCC)P(=O)(O)O)cc5)Oc5ccc(CCNC(=O)C(CCC)P(=O)(O)O)cc5)cc4)(Oc4ccc(/C=N/N(C)P(=S)(Oc5ccc(CCNC(=O)C(CCC)P(=O)(O)O)cc5)Oc5ccc(CCNC(=O)C(CCC)P(=O)(O)O)cc5)cc4)=NP(Oc4ccc(/C=N/N(C)P(=S)(Oc5ccc(CCNC(=O)C(CCC)P(=O)(O)O)cc5)Oc5ccc(CCNC(=O)C(CCC)P(=O)(O)O)cc5)cc4)(Oc4ccc(/C=N/N(C)P(=S)(Oc5ccc(CCNC(=O)C(CCC)P(=O)(O)O)cc5)Oc5ccc(CCNC(=O)C(CCC)P(=O)(O)O)cc5)cc4)=N3)cc2)cc1)P(=O)(O)O (configuration not stated) | > 100 µM | 1.5 µM | > 67 |
| CCCC(C(=O)NCCc1ccc(OP(=S)(Oc2ccc(CCNC(=O)C(CCC)P(=O)(O)O)cc2)N(C)/N=C/c2ccc(OP3(Oc4ccc(/C=N/N(C)P(=S)(Oc5ccc(CCNC(=O)C(CCC)P(=O)(O)O)cc5)Oc5ccc(CCNC(=O)C(CCC)P(=O)(O)O)cc5)cc4)=NP(Oc4ccc(/C=N/N(C)P(=S)(Oc5ccc(CCNC(=O)C(CCC)P(=O)(O)O)cc5)Oc5ccc(CCNC(=O)C(CCC)P(=O)(O)O)cc5)cc4)(Oc4ccc(/C=N/N(C)P(=S)(Oc5ccc(CCNC(=O)C(CCC)P(=O)(O)O)cc5)Oc5ccc(CCNC(=O)C(CCC)P(=O)(O)O)cc5)cc4)=NP(Oc4ccc(/C=N/N(C)P(=S)(Oc5ccc(CCNC(=O)C(CCC)P(=O)(O)O)cc5)Oc5ccc(CCNC(=O)C(CCC)P(=O)(O)O)cc5)cc4)(Oc4ccc(/C=N/N(C)P(=S)(Oc5ccc(CCNC(=O)C(CCC)P(=O)(O)O)cc5)Oc5ccc(CCNC(=O)C(CCC)P(=O)(O)O)cc5)cc4)=N3)cc2)cc1)P(=O)(O)O.CCCCCCCCCCCCCCCCNOC(CO)C(O)C(OC1OC(CO)C(O)C(O)C1O)C(O)CO.CCCCCCCCCCCCCCCCNOC(CO)C(O)C(OC1OC(CO)C(O)C(O)C1O)C(O)CO.CCCCCCCCCCCCCCCCNOC(CO)C(O)C(OC1OC(CO)C(O)C(O)C1O)C(O)CO.CCCCCCCCCCCCCCCCNOC(CO)C(O)C(OC1OC(CO)C(O)C(O)C1O)C(O)CO.CCCCCCCCCCCCCCCCNOC(CO)C(O)C(OC1OC(CO)C(O)C(O)C1O)C(O)CO.CCCCCCCCCCCCCCCCNOC(CO)C(O)C(OC1OC(CO)C(O)C(O)C1O)C(O)CO (configuration not stated) | 1.5 µM | 0.33 µM | 4.5 |
| CCCCCCCCCCCCCCCCNOC(CO)C(O)C(OC1OC(CO)C(O)C(O)C1O)C(O)CO.CCCCCCCCCCCCCCCCNOC(CO)C(O)C(OC1OC(CO)C(O)C(O)C1O)C(O)CO.CCCCCCCCCCCCCCCCNOC(CO)C(O)C(OC1OC(CO)C(O)C(O)C1O)C(O)CO.CCCCCCCCCCCCCCCCNOC(CO)C(O)C(OC1OC(CO)C(O)C(O)C1O)C(O)CO.CCCCCCCCCCCCCCCCNOC(CO)C(O)C(OC1OC(CO)C(O)C(O)C1O)C(O)CO.CCCCCCCCCCCCCCCCNOC(CO)C(O)C(OC1OC(CO)C(O)C(O)C1O)C(O)CO.CN(/N=C/c1ccc(OP2(Oc3ccc(/C=N/N(C)P(=S)(Oc4ccc(CCNC(=O)CP(=O)(O)O)cc4)Oc4ccc(CCNC(=O)CP(=O)(O)O)cc4)cc3)=NP(Oc3ccc(/C=N/N(C)P(=S)(Oc4ccc(CCNC(=O)CP(=O)(O)O)cc4)Oc4ccc(CCNC(=O)CP(=O)(O)O)cc4)cc3)(Oc3ccc(/C=N/N(C)P(=S)(Oc4ccc(CCNC(=O)CP(=O)(O)O)cc4)Oc4ccc(CCNC(=O)CP(=O)(O)O)cc4)cc3)=NP(Oc3ccc(/C=N/N(C)P(=S)(Oc4ccc(CCNC(=O)CP(=O)(O)O)cc4)Oc4ccc(CCNC(=O)CP(=O)(O)O)cc4)cc3)(Oc3ccc(/C=N/N(C)P(=S)(Oc4ccc(CCNC(=O)CP(=O)(O)O)cc4)Oc4ccc(CCNC(=O)CP(=O)(O)O)cc4)cc3)=N2)cc1)P(=S)(Oc1ccc(CCNC(=O)CP(=O)(O)O)cc1)Oc1ccc(CCNC(=O)CP(=O)(O)O)cc1 | 1.9 µM | 0.4 µM | 4.8 |
| CCCCCCCCCC(C(=O)NCCc1ccc(OP(=S)(Oc2ccc(CCNC(=O)C(CCCCCCCCC)P(=O)(O)O)cc2)N(C)/N=C/c2ccc(OP3(Oc4ccc(/C=N/N(C)P(=S)(Oc5ccc(CCNC(=O)C(CCCCCCCCC)P(=O)(O)O)cc5)Oc5ccc(CCNC(=O)C(CCCCCCCCC)P(=O)(O)O)cc5)cc4)=NP(Oc4ccc(/C=N/N(C)P(=S)(Oc5ccc(CCNC(=O)C(CCCCCCCCC)P(=O)(O)O)cc5)Oc5ccc(CCNC(=O)C(CCCCCCCCC)P(=O)(O)O)cc5)cc4)(Oc4ccc(/C=N/N(C)P(=S)(Oc5ccc(CCNC(=O)C(CCCCCCCCC)P(=O)(O)O)cc5)Oc5ccc(CCNC(=O)C(CCCCCCCCC)P(=O)(O)O)cc5)cc4)=NP(Oc4ccc(/C=N/N(C)P(=S)(Oc5ccc(CCNC(=O)C(CCCCCCCCC)P(=O)(O)O)cc5)Oc5ccc(CCNC(=O)C(CCCCCCCCC)P(=O)(O)O)cc5)cc4)(Oc4ccc(/C=N/N(C)P(=S)(Oc5ccc(CCNC(=O)C(CCCCCCCCC)P(=O)(O)O)cc5)Oc5ccc(CCNC(=O)C(CCCCCCCCC)P(=O)(O)O)cc5)cc4)=N3)cc2)cc1)P(=O)(O)O.CCCCCCCCCCCCCCCCNOC(CO)C(O)C(OC1OC(CO)C(O)C(O)C1O)C(O)CO.CCCCCCCCCCCCCCCCNOC(CO)C(O)C(OC1OC(CO)C(O)C(O)C1O)C(O)CO.CCCCCCCCCCCCCCCCNOC(CO)C(O)C(OC1OC(CO)C(O)C(O)C1O)C(O)CO.CCCCCCCCCCCCCCCCNOC(CO)C(O)C(OC1OC(CO)C(O)C(O)C1O)C(O)CO.CCCCCCCCCCCCCCCCNOC(CO)C(O)C(OC1OC(CO)C(O)C(O)C1O)C(O)CO.CCCCCCCCCCCCCCCCNOC(CO)C(O)C(OC1OC(CO)C(O)C(O)C1O)C(O)CO (configuration not stated) | 6.1 µM | 0.31 µM | 19.7 |
